Measured values from ChEMBL document CHEMBL1145252, “Macrolactonization catalyzed by the terminal thioesterase domain of the nonribosomal peptide synthetase responsible for lichenysin biosynthesis” (Bioorg Med Chem Lett, 2005).

Columns and labels:
[1] = Michaelis-Menten constant for the hydrolysis of the lipopeptide SNAC by the licC thioesterase
[2] = Michaelis-Menten constant for the cyclization of the lipopeptide SNAC by the licC thioesterase; nd = not determined.
[3] = Ratio of Michaelis-Menten constant to that of catalytic activity by the licC thioesterase
[4] = Catalytic activity for the hydrolysis of the lipopeptide SNAC by the licC thioesterase
[5] = Michaelis-Menten constant for the cyclization of the lipopeptide SNAC by the licC thioesterase
[6] = Catalytic activity for the cyclization of the lipopeptide SNAC by the surfactin thioesterase
[7] = Catalytic activity for the hydrolysis of the lipopeptide SNAC by the thioesterase

Km [1] [µM]	Km [5] [µM]	Compound	also measured
9.41		CC[C@H](C)[C@H](NC(=O)[C@@H](CC(C)C)NC(=O)[C@H](CC(=O)O)NC(=O)[C@@H](NC(=O)[C@@H](CC(C)C)NC(=O)[C@H](CC(C)C)NC(=O)[C@H](CCC(N)=O)NC(=O)CCN)C(C)C)C(=O)SCCNC(C)=O	Km [2]: Not detected; Ratio [3]: 17.3; K cat [4]: 163 min⁻¹
8.17		CC[C@H](C)[C@H](NC(=O)[C@@H](CC(C)C)NC(=O)[C@H](C)NC(=O)[C@@H](NC(=O)[C@@H](CC(C)C)NC(=O)[C@H](CC(C)C)NC(=O)[C@H](CCC(N)=O)NC(=O)C[C@@H](C)O)C(C)C)C(=O)SCCNC(C)=O	
8.05	9.35	CC[C@H](C)[C@H](NC(=O)[C@@H](CC(C)C)NC(=O)[C@H](CC(=O)O)NC(=O)[C@H](C)NC(=O)[C@@H](CC(C)C)NC(=O)[C@H](CC(C)C)NC(=O)[C@H](CCC(N)=O)NC(=O)C[C@@H](C)O)C(=O)SCCNC(C)=O	
263	257	CC[C@H](C)[C@H](NC(=O)[C@@H](C)NC(=O)[C@H](CC(=O)O)NC(=O)[C@@H](NC(=O)[C@@H](CC(C)C)NC(=O)[C@H](CC(C)C)NC(=O)[C@H](CCC(N)=O)NC(=O)C[C@@H](C)O)C(C)C)C(=O)SCCNC(C)=O	
4.86	5.1	CC[C@H](C)[C@H](NC(=O)[C@@H](CC(C)C)NC(=O)[C@H](CC(=O)O)NC(=O)[C@@H](NC(=O)[C@@H](C)NC(=O)[C@H](CC(C)C)NC(=O)[C@H](CCC(N)=O)NC(=O)C[C@@H](C)O)C(C)C)C(=O)SCCNC(C)=O	
8.13	6.83	CC[C@H](C)[C@H](NC(=O)[C@@H](CC(C)C)NC(=O)[C@H](CC(=O)O)NC(=O)[C@@H](NC(=O)[C@@H](CC(C)C)NC(=O)[C@H](CC(C)C)NC(=O)[C@H](CCC(N)=O)NC(=O)C[C@@H](C)O)C(C)C)C(=O)SCCNC(C)=O	K cat [6]: 106 min⁻¹; K cat [7]: 94.5 min⁻¹
12		CC[C@H](C)[C@H](NC(=O)[C@@H](CC(C)C)NC(=O)[C@H](CC(=O)O)NC(=O)[C@@H](NC(=O)[C@@H](CC(C)C)NC(=O)[C@H](CC(C)C)NC(=O)[C@H](CCC(N)=O)NC(=O)C[C@H](C)O)C(C)C)C(=O)SCCNC(C)=O	Km [2]: Not detected; Ratio [3]: 19.5; K cat [4]: 233 min⁻¹
191		CC(=O)NCCSC(=O)[C@H](C)NC(=O)[C@@H](CC(C)C)NC(=O)[C@H](CC(=O)O)NC(=O)[C@@H](NC(=O)[C@@H](CC(C)C)NC(=O)[C@H](CC(C)C)NC(=O)[C@H](CCC(N)=O)NC(=O)C[C@@H](C)O)C(C)C	
16.9	15.2	CC[C@H](C)[C@H](NC(=O)[C@@H](CC(C)C)NC(=O)[C@H](CC(=O)O)NC(=O)[C@@H](NC(=O)[C@@H](CC(C)C)NC(=O)[C@H](C)NC(=O)[C@H](CCC(N)=O)NC(=O)C[C@@H](C)O)C(C)C)C(=O)SCCNC(C)=O	
29	29.9	CC[C@H](C)[C@H](NC(=O)[C@@H](CC(C)C)NC(=O)[C@H](CC(=O)O)NC(=O)[C@@H](NC(=O)[C@@H](CC(C)C)NC(=O)[C@H](CC(C)C)NC(=O)[C@H](C)NC(=O)C[C@@H](C)O)C(C)C)C(=O)SCCNC(C)=O	
